Results: patent US20230048888A1, “USE OF TRIAZOLOTRIAZINE DERIVATIVE IN TREATMENT OF DISEASES” (ZHEJIANG VIMGREEN PHARMACEUTICALS, LTD., priority 2019, published 2023)

How the values were obtained:
human ADORA2B = molecular target: T1, human ADORA2B (Homo sapiens, UniProt P29275); experiment: Calcium flow test (FLIPR), ADORA2B stably transfected HEK293; type: cell-based; details: Table 9
T1 construct: host or cells: HEK293
Excerpt: The binding of the A2AR agonist to A2AR could activate a downstream pathway to increase the intracellular calcium ion concentration. The antagonist would competitively occupy the binding site where the agonist binds to A2AR, thereby interrupting the intracellular signal transduction and leading to a change in the intracellular calcium ion concentration. By detecting the strength of the intracellular calcium ion signal, the antagonistic activities of the compound on human ADORA1, ADORA2A, ADORA2B and ADORA3 adenosine receptors were determined. […]
7) The FLIPR instrument software was operated; following a set program, 10 μL of experimental buffer salt solution was added to the cell plate; and fluorescence signals were read. Then, 10 μL of the reference compound of agonist at a predetermined concentration was added to the cell plate, and the fluorescence signals were read. After reading, data was exported by means of “Max-Min” and “Read 91 to Maximum allowed” in the software, the EC80 of each cell line was calculated, and an agonist with a concentration of 6×EC80 was prepared.
9) The FLIPR instrument software was operated; following a set program, 10 μL of the test compound and 10 μL of the reference compound were added at a predetermined concentration to the cell plate; and the fluorescence signals were read. […]

[1] = system: reserpine-induced dyskinesia; experiment: Mouse reserpine-induced dyskinesia model (Laboras spontaneous activity); type: in vivo, CD1 mice
Excerpt: Reserpine is an indole alkaloid drug, which can inhibit the reuptake of noradrenergic neuron terminals to lead to slowed movement or incompetence, thereby inducing clinical symptoms similar to those of the Parkinson's disease. Its mechanism is as follows: the reserpine can block the transport of irreversible monoamines such as DA, 5-hydroxytryptamine (5-HT) and norepinephrine (NA) in vesicles, such that the monoamines are degraded in cells to consume central and peripheral monoamines, and rapidly reduce the level of monoamines, resulting in dyskinesias and other Parkinson's disease-like symptoms. An A2A receptor antagonist was administered to evaluate if the compound under test can ameliorate the dyskinesia of the mice. The evaluation indicators include walking distance, walking time, number of standings and standing time. […] The total number of actually used animals was 90. The animals were purchased from Charles River Laboratories in Beijing (Animal Certificate Number: 1100112011009984) and raised in the animal house of ChemPartner in Shanghai (Experimental Animal License: SYXK (Shanghai) 2017-0018). The animal house has an SPF environment. On the first day of the test, a single subcutaneous injection of 0.1% acetic acid or 0.6 mg/kg reserpine was performed based on the pre-set grouping and time points. After the injection, the animals were put back to rearing cages and pushed back to the original rearing room. The activity test was carried out on the second day of the test, and before the test, the Laboras system needed to be calibrated in advance to make it in a normal working state. […] The mice were put into an independent Laboras test box 50 minutes after the administration, and the Laboras behavior recording system was started up after 10 minutes of adaptation. The current moment is the 1st hour after the last administration for the animals, and the animals were recorded continuously for 60 minutes. After the test was completed, the Laboras behavior system automatically analyzed the walking distance (m), walking time (sec), the number of standings and standing time (sec) of the mice at 0-30 min, 30-60 min, 0-60 min and every 10 min. All measurement data were represented as mean±standard error of mean (mean±SEM), and check analysis was performed by Prism 8.0 statistical software.

[2] = 10 mg/kg intragastric, 0-30 min
[3] = 10 mg/kg intragastric, 0-60 min
[4] = 10 mg/kg intragastric, 30-60 min
[5] = 3 mg/kg intragastric, 30-60 min
[6] = 30 mg/kg intragastric, 0-30 min
[7] = 30 mg/kg intragastric, 0-60 min
[8] = 30 mg/kg intragastric, 30-60 min

T1 sequence (P29275 whole entry): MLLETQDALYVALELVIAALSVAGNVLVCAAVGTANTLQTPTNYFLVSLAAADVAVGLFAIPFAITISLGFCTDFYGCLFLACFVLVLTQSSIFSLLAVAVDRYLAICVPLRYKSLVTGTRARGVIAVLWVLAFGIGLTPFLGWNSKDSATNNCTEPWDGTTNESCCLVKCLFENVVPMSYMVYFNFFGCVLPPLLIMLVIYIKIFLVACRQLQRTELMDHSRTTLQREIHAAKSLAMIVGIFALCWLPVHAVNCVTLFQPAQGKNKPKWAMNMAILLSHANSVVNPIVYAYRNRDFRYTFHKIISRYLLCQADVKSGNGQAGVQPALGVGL

Compound | IC50 (human ADORA2B) | Number of standings [1, 2] | Walking distance [1, 2] | Walking time [1, 2] | Number of standings [1, 3] | Walking distance [1, 3] | Walking time [1, 3] | Number of standings [1, 4] | Walking distance [1, 4] | Walking time [1, 4] | further results
Nc1nc(NCCc2ccc(NC3COC3)cc2)nc2nc(-c3ccco3)nn12 [Compound 22, 2-(furan-2-yl)-N5-(4-(oxetan-3-ylamino)phenethyl)-[1,2,4]triazolo[1,5-a][1,3,5]triazine-5,7-diamine] | 106 ± 29.2 nM | – | – | – | – | – | – | – | – | – | –
CCn1c(=O)c2c(nc(/C=C/c3ccc(OC)c(OC)c3)n2C)n(CC)c1=O [Istradefylline, reference compound] | – | 94.3 ± 11.1 | 11.9 ± 1.4 m | 177.5 ± 16.0 s | 165 ± 20 | 23.7 ± 3.2 m | 298.3 ± 28.4 s | 70.6 ± 10.6 | 11.8 ± 2.0 m | 120.8 ± 16.0 s | –
Cn1nnc(-c2ccc(CCNc3nc(N)n4nc(-c5ccco5)nc4n3)cc2)n1 [Compound 40, N5-(4-(2-methyl-2H-tetrazol-5-yl)phenethyl)-2-(furan-2-yl)-[1,2,4]triazolo[1,5-a][1,3,5]triazine-5,7-diamine] | 194 ± 25.5 nM | – | – | – | – | – | – | – | – | – | –
CC(=O)O.Nc1nc(NCCc2ccc(NC3COC3)cc2)nc2nc(-c3ccco3)nn12 [Acetate of Compound 22, 2-(furan-2-yl)-N5-(4-(oxetane-3-ylamino)phenethyl)-[1,2,4]triazolo[1,5-a][1,3,5]triazine-5,7-diamine acetate] | – | 75.6 ± 8 | 10.7 ± 1.0 m | 160.5 ± 10.8 s | 116 ± 15.7 | 19.2 ± 2.9 m | 245.4 ± 29.1 s | 40.3 ± 11.4 | 8.5 ± 2.3 m | 84.9 ± 22.4 s | Number of standings ([1]; 3 mg/kg intragastric, 0-30 min): 36.7 ± 5.9; Walking distance ([1]; 3 mg/kg intragastric, 0-30 min): 4.3 ± 0.7 m; Walking time ([1]; 3 mg/kg intragastric, 0-30 min): 77.8 ± 11.0 s; Number of standings ([1]; 3 mg/kg intragastric, 0-60 min): 49.6 ± 12.2; Walking distance ([1]; 3 mg/kg intragastric, 0-60 min): 6.9 ± 2.1 m; Walking time ([1]; 3 mg/kg intragastric, 0-60 min): 108.5 ± 23.0 s; Number of standings [1, 5]: 12.9 ± 6.8; Walking distance [1, 5]: 2.6 ± 1.6 m; Walking time [1, 5]: 30.7 ± 13.9 s; Number of standings [1, 6]: 98.7 ± 12.6; Walking distance [1, 6]: 11.3 ± 1.1 m; Walking time [1, 6]: 175.6 ± 12.4 s; Number of standings [1, 7]: 178 ± 20.9; Walking distance [1, 7]: 27.1 ± 2.5 m; Walking time [1, 7]: 311.0 ± 22.3 s; Number of standings [1, 8]: 79.4 ± 10.1; Walking distance [1, 8]: 15.9 ± 1.9 m; Walking time [1, 8]: 135.4 ± 12.8 s
